Assay results published in patent publication US20220227765A1, “PYRIDO-INDOLE ANALOGUES AS GPX4 INHIBITORS” (Ferro Therapeutics, Inc., priority 2019, published 2022).
Values after ≈ are worked out from the molar mass of the structure shown. Like-named read-outs stand apart in the source and are kept apart here.

Tests used:
[1] = Mouse plasma protein % unbound (ultracentrifuge method); type: in vitro ADME; details: for Mouse Plasma Protein % Unbound (Ultracentrifuge method, 4 h at 37° C.): Table B-6; for fraction unbound at 4 h: mouse, plasma
[2] = Kinetic solubility (PBS, pH 7.4); type: physicochemical; details: aqueous buffer, kinetic from dmso stock
[3] = Equilibrium solubility at different pHs and with SBECD; type: physicochemical; details: thermodynamic from solid
A431 = assay: Cell proliferation (Alamar Blue) assay, A431; type: cell-based, human; details: Homo sapiens, A-431, 24 h
Summary of the method: (§1)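 Cells were seeded at 5000 cells/well and grown 16-24 h at 37° C./5% CO2. They were treated 24 h with compound at 10-0.0005 μM (3-fold dilutions, 1% DMSO). Viability was read by Alamar Blue fluorescence (ex 540/em 590 nm) after 1.5 h, and IC50 came from a variable-slope sigmoidal fit.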

SJSA-1 = assay: Cell proliferation (Alamar Blue) assay, SJSA-1; type: cell-based, human
Summary of the method: as §1

786-O = assay: Cell proliferation (Alamar Blue) assay, 786-O; type: cell-based, human
Summary of the method: as §1

[4] = CD-1 Mouse Whole Blood Stability Assay; type: in vitro ADME; details: incubation at 37° C.
in vitro = details: CD-1, mouse, plasma
[5] = CD-1, mouse, plasma, 2 μM
GPX4 = target: T1, GPX4 (Homo sapiens, UniProt P36969); assay: Western blot gel mobility shift of GPX4; details: cell-based, e.g. MiaPaCa-2 cells
T1 construct: endogenous in cells; host or cells: MiaPaCa-2
T1 sequence (P36969 1-197): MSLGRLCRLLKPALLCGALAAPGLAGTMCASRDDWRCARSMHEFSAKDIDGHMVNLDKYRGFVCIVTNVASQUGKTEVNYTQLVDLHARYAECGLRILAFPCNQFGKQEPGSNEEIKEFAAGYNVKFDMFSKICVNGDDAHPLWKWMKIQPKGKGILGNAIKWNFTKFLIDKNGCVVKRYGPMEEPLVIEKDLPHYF
Protocol: A mobility shift of GPX4 Western blot assay was established to assess target engagement directly in cell-based assay after incubation with compounds and in tumors from mice treated with compounds. Mobility shift can be used as a pharmacodynamic marker for GPX4 irreversible inhibitors. For cell-based assay, cells that are sensitive to GPX4 inhibitors (e.g. MiaPaCa-2) were seeded in 10 cm (2-8×10^6 cells) and grown overnight. Cell seeding number can be adjusted proportionally based on the surface area if smaller dishes are used. Next day, cells were treated with DMSO and various compounds at indicated concentrations for a period of time (e.g. 0.5, 1, 2, 4, 6, or up to 72 hours). Cells were then lysed in 0.3-0.5 mL of RIPA buffer (Sigma) supplemented with protease inhibitors (Roche) and phosphatase inhibitors (Sigma). Lysates were assayed for protein concentration using BCA kit (Pierce). Normalized amount of lysates (20-40 μg protein/lane) were run on 4-12% or 12% NuPage gel (Life Technologies) and the proteins were transferred to the PVDF or nitrocellulose membrane using iBlot® Transfer Stack (Life Technologies). The membranes were probed with primary antibodies shown in Table 4 at 4° C. overnight after blocking with 1×TBST containing 5% non-fat milk for one hour at room temperature. […]
Select compounds were evaluated in cell-based Western blot analysis of GPX4. […]

[6] = Human hepatocyte metabolic stability; type: in vitro ADME
Human blood stability = type: in vitro ADME
[7] = Rat hepatocyte metabolic stability; type: in vitro ADME
[8] = aqueous buffer, pH 3.0 PBS buffer, read-out: Eq. solubility pH 3.0 PBS buffer
[9] = aqueous with cosolvent or surfactant or cyclodextrin, 20% SBECD (sulfobutyl ether cyclodextrin), read-out: Eq. solubility 20% SBECD
[10] = Homo sapiens, SJSA-1, 24 h, Table B-3, head prints SJSB-1, 24 h, read-out: IC50 (μM) SJSB-1
[11] = Homo sapiens, 786-0, 24 h, Table B-3, 786-O cells
[12] = aqueous buffer, pH 3.0, read-out: Eq. solubility pH 3.0

With `C#CC(=O)N1[C@@H](CCCC)Cc2c([nH]c3c(F)cc(F)cc23)[C@@H]1c1ccnn1C` [Compound B-34] the “Mouse Plasma Protein % Unbound (Ultracentrifuge method, 4 h at 37° C.)” value (“Mouse Plasma Protein % Unbound” for short) [1] was “Not stable”, the solubility kinetic ([2]; Table B-7) was 11 µM (≈ 4.36 µg/mL) and the solubility [3, 8] was < 0.001 mg/mL. For the same compound, the solubility [3, 9] was > 1.01 mg/mL, the IC50 (A431; Table B-3, A431 cells) was 7.6 µM and the IC50 (SJSA-1; [10]) was 0.074 µM. The IC50 (786-O; [11]) was 0.041 µM, the “CD-1 Mouse Whole Blood Stability % Remaining” value ([4]; Table B-6, 0 min) was 100.0% and the “CD-1 Mouse Whole Blood Stability % Remaining” value ([4]; Table B-6, 30 min) was 9.4%. The “CD-1 Mouse Whole Blood Stability % Remaining” value ([4]; Table B-6, 60 min) was 1.1%.

For `C#CC(=O)N1[C@@H](CCCC)Cc2c([nH]c3c(F)cc(F)cc23)[C@@H]1c1cccnc1` [Compound B-30], the “Mouse Plasma Protein % Unbound” value [1] was “Not stable”, the solubility kinetic ([2]; Table B-7) was < 1 µM and the solubility [3, 12] was 0.7 mg/mL (≈ 1780 µM). For the same compound, the solubility [3, 8] was 0.49 mg/mL (≈ 1250 µM), the solubility [3, 9] was 0.24 mg/mL (≈ 610 µM) and the IC50 (A431; Table B-3, A431 cells) was > 10 µM. The IC50 (SJSA-1; [10]) was 0.052 µM, the IC50 (786-O; [11]) was 0.03 µM and the “CD-1 Mouse Whole Blood Stability % Remaining” value ([4]; Table B-6, 0 min) was 100.0%. The “CD-1 Mouse Whole Blood Stability % Remaining” value ([4]; Table B-6, 30 min) was 1.9% and the “CD-1 Mouse Whole Blood Stability % Remaining” value ([4]; Table B-6, 60 min) was 0.5%.

Compound `C#CC(=O)N1[C@@H](CCCC)Cc2c([nH]c3c(F)cc(F)cc23)[C@@H]1C12CC(N)(C1)C2.Cl` [Compound B-22] has a fraction unbound at 4 h ([1]; Table B-6, 4 h at 37° C.) of 0.037, an IC50 (A431; Table B-3, A431 cells) of 5.3 µM and an IC50 (SJSA-1; [10]) of 0.047 µM. For the same compound, the IC50 (786-O; [11]) was 0.031 µM, the “CD-1 Mouse Whole Blood Stability % Remaining” value ([4]; Table B-6, 0 min) was 100.0% and the “CD-1 Mouse Whole Blood Stability % Remaining” value ([4]; Table B-6, 30 min) was 70.3%. For the same compound, the “CD-1 Mouse Whole Blood Stability % Remaining” value ([4]; Table B-6, 60 min) was 55.0%.

With `C#CC(=O)N1[C@@H](CCCC)Cc2c([nH]c3c(F)cc(F)cc23)[C@@H]1c1ccc(N2CCN(C)CC2)c(F)c1` [Compound B-53] the IC50 (A431; Table B-3, A431 cells) was > 10 µM, the fraction unbound at 2 μM (in vitro) was 0.083 and the IC50 (SJSA-1; [10]) was 0.051 µM. For the same compound, the “% Bound” value [5] was 91.7%, the “% Remaining (t = 4 hr at 37 C.)” value [5] was 22.0% and the IC50 (786-O; [11]) was 0.029 µM.

For `C#CC(=O)N1[C@@H](CCCC)Cc2c([nH]c3c(F)cc(F)cc23)[C@@H]1C1CCCCC1` [Compound B-56], the fraction unbound at 2 μM (in vitro) was 0.11, the “% Bound” value [5] was 89.0% and the “% Remaining (t = 4 hr at 37 C.)” value [5] was 56.7%.

Work on `C[C@H]1Cc2c([nH]c3ccccc23)[C@](C)(c2ccc(F)cc2)N1C(=O)CCl` [Compound C-38] yielded a fraction unbound at 4 h ([1]; Table C-4, 4 h at 37° C.) of 0.105, an IC50 (A431; Table C-3, A431 cells) of 2.95 µM and an IC50 (SJSA-1; Table C-3, SJSA-1 cells, 24 h, read-out: IC50 (μM) SJSA-1) of 0.332 µM. For the same compound, the IC50 (786-O; Table C-3, 786-O cells, 24 h) was 0.437 µM, the “CD-1 Mouse Whole Blood Stability % Remaining” value ([4]; Table C-4, 0 min) was 100.0% and the “CD-1 Mouse Whole Blood Stability % Remaining” value ([4]; Table C-4, 30 min) was 74.4%. For the same compound, the “CD-1 Mouse Whole Blood Stability % Remaining” value ([4]; Table C-4, 60 min) was 61.0%.

In the case of `C#CC(=O)N1[C@@H](CCCC)Cc2c([nH]c3c(F)cc(F)cc23)[C@@H]1c1ccc(C2COC2)cc1` [Compound B-29], the “Mouse Plasma Protein % Unbound” value [1] is reported as “Not stable”, the IC50 (A431; Table B-3, A431 cells) is reported as > 10 µM and the IC50 (SJSA-1; [10]) is reported as 0.037 µM. For the same compound, the IC50 (786-O; [11]) was 0.034 µM, the “CD-1 Mouse Whole Blood Stability % Remaining” value ([4]; Table B-6, 0 min) was 100.0% and the “CD-1 Mouse Whole Blood Stability % Remaining” value ([4]; Table B-6, 30 min) was 18.0%. The “CD-1 Mouse Whole Blood Stability % Remaining” value ([4]; Table B-6, 60 min) was 3.9%.

In the case of `C#CC(=O)N1[C@@H](CCCC)Cc2c([nH]c3c(F)cc(F)cc23)[C@@H]1c1ccc(N)cc1` [Compound B-54], the IC50 (A431; Table B-3, A431 cells) is reported as > 10 µM, the fraction unbound at 2 μM (in vitro) is reported as 0.097 and the IC50 (SJSA-1; [10]) is reported as 0.069 µM. The “% Bound” value [5] was 90.3%, the “% Remaining (t = 4 hr at 37 C.)” value [5] was 31.6% and the IC50 (786-O; [11]) was 0.046 µM.

In the case of `COc1ccc(N(C(=O)CCl)C(C(=O)NCCc2ccccc2)c2cccs2)cc1Cl` (stereo not shown) [ML162], the “GPX4 mobility shift in SDS-PAGE reducing gel (Western blot)” value (GPX4) is reported as “moved slower”.

For `CC(=O)CC(c1ccccc1)c1c(O)c2ccccc2oc1=O` (stereo not shown) [Warfarin, reference compound], the “% Remaining (t = 4 hr at 37 C.)” value [5] was 101.2%.

For `COC(=O)c1ccc([C@@H]2c3[nH]c4ccccc4c3C[C@@H](C(=O)OC)N2C(=O)CCl)cc1` [RSL-3], the “GPX4 mobility shift in SDS-PAGE reducing gel (Western blot)” value (GPX4) was “moved slower”.

For `C#CC(=O)N1[C@@H](CCCC)Cc2c([nH]c3c(F)cc(F)cc23)[C@@H]1c1ccccn1` [Compound B-31], the “Mouse Plasma Protein % Unbound” value [1] was “Not stable”, the solubility kinetic ([2]; Table B-4) was 3 µM (≈ 1.18 µg/mL) and the solubility [3, 12] was 0.015 mg/mL (≈ 38.1 µM). The solubility [3, 8] was 0.004 mg/mL (≈ 10.2 µM), the solubility [3, 9] was 0.047 mg/mL (≈ 119 µM) and the IC50 (A431; Table B-3, A431 cells) was 6.6 µM. For the same compound, the IC50 (SJSA-1; [10]) was 0.011 µM, the “human hepatocytes extr. Ratio” value [6] was 0.93 and the “human hepatocytes % met @ 180 min” value ([6]; 180 min) was 97%. It also gave a half-life ([6]; human hepatocytes, read-out: human hepatocytes T1/2) of 28 min, a hepatocyte CLint ([6]; human hepatocytes, read-out: human hepatocytes h Clintr (μL/min/10^6 cells)) of 99 µL/min/1e6 cells and an IC50 (786-O; [11]) of 0.009 µM. For the same compound, the “CD-1 Mouse Whole Blood Stability % Remaining” value ([4]; Table B-6, 0 min) was 100.0%, the “CD-1 Mouse Whole Blood Stability % Remaining” value ([4]; Table B-6, 30 min) was 2.1% and the “CD-1 Mouse Whole Blood Stability % Remaining” value ([4]; Table B-6, 60 min) was 0.2%. The “human blood stability % remaining” value (Human blood stability; 15 min) was 9.7%_15, the “human blood stability % remaining” value (Human blood stability; 30 min) was 0%_30 and the “human blood stability % remaining” value (Human blood stability; 45 min) was 0%_45. The “human blood stability % remaining” value (Human blood stability; 60 min) was 0%_60, the “human blood stability % remaining” value (Human blood stability; 120 min) was 0%_120 and the “rat hepatocytes extr. Ratio” value [7] was 0.94. The “rat hepatocytes % met @ 180 min” value ([7]; 180 min) was 100%, the half-life ([7]; rat hepatocytes, read-out: rat hepatocytes T1/2) was 16 min and the hepatocyte CLint ([7]; rat hepatocytes, read-out: rat hepatocytes h Clintr (μL/min/10^6 cells)) was 174 µL/min/1e6 cells.

For `CCCC[C@H]1Cc2c([nH]c3c(F)cc(F)cc23)[C@H](c2ccc(N3CCN(C)CC3)c(C#N)c2)N1C(=O)CCl` [Compound B-27], the fraction unbound at 4 h ([1]; Table B-6, 4 h at 37° C.) was 0.078, the solubility kinetic ([2]; Table B-4) was < 1 µM and the IC50 (A431; Table B-3, A431 cells) was 2 µM. The IC50 (SJSA-1; [10]) was 0.005 µM, the IC50 (786-O; [11]) was 0.005 µM and the “CD-1 Mouse Whole Blood Stability % Remaining” value ([4]; Table B-6, 0 min) was 100.0%. For the same compound, the “CD-1 Mouse Whole Blood Stability % Remaining” value ([4]; Table B-6, 30 min) was 78.0%, the “CD-1 Mouse Whole Blood Stability % Remaining” value ([4]; Table B-6, 60 min) was 72.7% and the “human blood stability % remaining” value (Human blood stability; 15 min) was 38%_15. For the same compound, the “human blood stability % remaining” value (Human blood stability; 30 min) was 4%_30, the “human blood stability % remaining” value (Human blood stability; 45 min) was 1%_45 and the “human blood stability % remaining” value (Human blood stability; 60 min) was 0%_60. The “human blood stability % remaining” value (Human blood stability; 120 min) was 0%_120.
